Test results as given in publication PMC8565515, “Dasabuvir Inhibits Human Norovirus Infection in Human Intestinal Enteroids” (mSphere, 2021).
Counter-ions that a name gives are not always drawn. Like-named read-outs stand apart in the source and are kept apart here.

Key:
J2 HIE monolayers = test: Cytotoxicity by LDH assay in J2 HIE monolayers; conditions: 24 hpi; for (%) Cytotoxicity: compound 10 μM, n = 1, LDH assay, J2 HIE monolayers infected with GII.4 HuNoV, normalized to DMSO control
GII.4 HuNoV = GII.4 HuNoV infection of HIE monolayers, viral genome equivalents by RT-qPCR; assay type: cell-based, human norovirus; conditions: for activity at 10 µM: Norovirus, 24 h, read-out: (%) HuNoV GEs
[1] = compound 10 μM, n = 1, J2 HIE monolayers, GII.4 HuNoV, 24 hpi, normalized to DMSO control

Compound | (%) Cytotoxicity (J2 HIE monolayers) [%] | activity at 10 µM (GII.4 HuNoV; [1]) [%] | also measured
CCOC(=O)c1c(CSc2ccccc2)n(C)c2cc(Br)c(O)c(CN(C)C)c12.Cl [Arbidol hydrochloride] | 15.58 | – | (%) HuNoV GEs (GII.4 HuNoV; [1]): 16.88%
Cc1cc(C)c(Nc2ccnc(Nc3ccc(C#N)cc3)n2)c(C)c1 [Dapivirine] | 0.74 | 24.8 | –
CC1(C)[C@@H](O[C@H]2O[C@H](C(=O)O)[C@@H](O)[C@H](O)[C@H]2O[C@@H]2O[C@H](C(=O)O)[C@@H](O)[C@H](O)[C@H]2O)CC[C@]2(C)[C@H]3C(=O)C=C4[C@@H]5C[C@@](C)(C(=O)O)CC[C@]5(C)CC[C@@]4(C)[C@]3(C)CC[C@@H]12 [Glycyrrhizin] | 4.28 | 103 | –
CC(C)OC(=O)[C@H](C)N[P@](=O)(CO[C@H](C)Cn1cnc2c(N)ncnc21)Oc1ccccc1 [Tenofovir alafenamide] | -0.20 | – | activity at 10 µM (GII.4 HuNoV): 55.2%
CCOC(=O)CCC(=O)O[C@H]1[C@H](O[C@@H]2[C@@H](C)[C@H](O[C@H]3C[C@@](C)(OC)[C@@H](O)[C@H](C)O3)[C@@H](C)C(=O)O[C@H](CC)[C@@](C)(O)[C@H](O)[C@@H](C)C(=O)[C@H](C)C[C@@]2(C)O)O[C@H](C)C[C@@H]1N(C)C [Erythromycin ethylsuccinate] | 0.23 | 107 | –
CC(C)(C)C#Cc1cc(N(C(=O)[C@H]2CC[C@H](C)CC2)[C@H]2CC[C@H](O)CC2)c(C(=O)O)s1 [Lomibuvir] | -1.75 | 87.6 | –
O=C1C[C@@H](c2ccc(O)cc2)Oc2cc(O)cc(O)c21 [Naringenin] | 1.14 | 165 | –
CN[C@@H]1[C@H](O)[C@H](NC)[C@H]2O[C@@]3(O)C(=O)C[C@@H](C)O[C@H]3O[C@@H]2[C@H]1O.Cl.Cl [Spectinomycin dihydrochloride] | -1.44 | – | (%) HuNoV GEs (GII.4 HuNoV; [1]): 109.17%
Cc1nnc(C(=O)NC(C)(C)c2nc(C(=O)NCc3ccc(F)cc3)c(O)c(=O)n2C)o1 [Raltegravir] | 1.45 | 49.3 | –
CC[n+]1c(-c2ccccc2)c2cc(N)ccc2c2ccc(N)cc21 [Ethidium bromide] | -1.16 | 21.1 | –
CC(C)OC(=O)C1=CN(C(=O)c2ccc(F)c(F)c2)CC(C)(C)c2c1[nH]c1ccccc21 [Turofexorate Isopropyl] | 0.86 | 31.9 | –
COc1ccc(C2CNC(=O)C2)cc1OC1CCCC1 (stereo not drawn) [Rolipram] | -0.46 | 78.7 | –
COc1cc(O)c(CC=C(C)C)c(O)c1C(=O)/C=C/c1ccc(O)cc1 [Xanthohumol] | 2.40 | 67.3 | –
O=C(Nc1ccc(O)cc1)c1ccccc1O [Osalmid] | 3.16 | 52.1 | –
C[C@@]1(O)[C@H](O)[C@@H](CO)O[C@H]1n1ccc(N)nc1=O [2-CMC, 2′-C-methylcytidine] | – | – | cytotoxicity (J2 HIE monolayers; 389 μM, J2 monolayers): without any cytotoxicity; effect on HuNoV infection (GII.4 HuNoV; 389 μM, J2 monolayers, GII.4 HuNoV, 24 hpi, positive control): completely blocked viral infection
CN(C)[C@@H]1C(O)=C(C(N)=O)C(=O)[C@@]2(O)C(O)=C3C(=O)c4c(O)cccc4[C@@](C)(O)[C@H]3C[C@@H]12 [Tetracycline] | 0.09 | 108 | –
CCCCCCCCCC(=O)O[C@H]1CC[C@H]2[C@@H]3CCC4=CC(=O)CC[C@@H]4[C@H]3CC[C@]12C [Nandrolone decanoate] | 0.98 | 58.9 | –
O=C1CCC[C@@H]2[C@H]3CCC[N+]4([O-])CCC[C@@H](CN12)[C@@H]34 (stereo partly drawn) [Oxymatrine] | 2.33 | 56.1 | –
Cc1ccnc2c1NC(=O)c1cccnc1N2C1CC1 [Nevirapine] | 0.72 | 56.6 | –
O=c1c2ccccc2[se]n1-c1ccccc1 [Ebselen] | 2.77 | 96.7 | –
CC(C)c1nc(CN(C)C(=O)N[C@@H](CCN2CCOCC2)C(=O)N[C@H](CC[C@H](Cc2ccccc2)NC(=O)OCc2cncs2)Cc2ccccc2)cs1 [Cobicistat] | -2.34 | 19.8 | –
Cc1cc(C#N)cc(C)c1Oc1nc(Nc2ccc(C#N)cc2)nc(N)c1Br [Etravirine] | 24.52 | 28.8 | –
CCOC(=O)c1c(C)n(C)c2ccc(O)cc12 [Mecarbinate] | 0.93 | – | (%) HuNoV GEs (GII.4 HuNoV; [1]): 102.13%

Compound | (%) Cytotoxicity (J2 HIE monolayers) [%] | activity at 10 µM (GII.4 HuNoV; [1]) [%] | also measured
COc1cc2c(cc1Cc1cccc(Cl)c1F)c(=O)c(C(=O)O)cn2[C@H](CO)C(C)C [Elvitegravir] | 0.85 | 164 | –
O=C(Nc1ncc([N+](=O)[O-])s1)c1ccccc1O [Tizoxanide] | 2.28 | 40 | –
NC(=O)c1nc(F)c[nH]c1=O [Favipiravir] | -1.51 | 81 | –
Cc1cc(/C=C/C#N)cc(C)c1Nc1ccnc(Nc2ccc(C#N)cc2)n1 [Rilpivirine] | 0.20 | 117 | –
C=C1CC[C@@H]2[C@](C)(CO)[C@H](O)CC[C@@]2(C)[C@@H]1C/C=C1/C(=O)OC[C@H]1O [Andrographolide] | -1.18 | 70.9 | –
CC1(C)CC[C@]2(C(=O)O)CC[C@]3(C)C(=CC[C@@H]4[C@@]5(C)CC[C@H](O)C(C)(C)[C@@H]5CC[C@]43C)[C@@H]2C1 [Oleanolic Acid] | 4.14 | 82 | –
CC(C)c1cc(Oc2c(Cl)cc(-n3nc(C#N)c(=O)[nH]c3=O)cc2Cl)n[nH]c1=O [MGL3196] | -0.56 | 70.8 | –
CN(C)C[C@H](O)Cn1c2ccc(Br)cc2c2cc(Br)ccc21 (racemic) [Wiskostatin] | 2.02 | 22.9 | –
O=c1[nH]c(=O)n([C@H]2C[C@H](O)[C@@H](CO)O2)cc1/C=C/Br [Brivudine] | 4.68 | 34.8 | –
C[C@H]1CC[C@@]2(O)C(C)(C)[C@@H]3CC[C@@]2(C)[C@H]1C3 [Patchouli alcohol] | 1.24 | – | (%) HuNoV GEs (GII.4 HuNoV; [1]): 83.87%
Vitamin E | -0.33 | – | (%) HuNoV GEs (GII.4 HuNoV; [1]): 125.47%
CC(N)C12CC3CC(CC(C3)C1)C2 (stereo not drawn) [Rimantadine hydrochloride] | 2.41 | 40.9 | –
Cl.N=C(N=C(N)N)N1CCOCC1 [Moroxydine hydrochloride] | -1.11 | – | (%) HuNoV GEs (GII.4 HuNoV; [1]): 119.22%
CC1(C)[C@@H](O[C@H]2O[C@H](C(=O)O)[C@@H](O)[C@H](O)[C@H]2O[C@@H]2O[C@H](C(=O)O)[C@@H](O)[C@H](O)[C@H]2O)CC[C@]2(C)[C@H]3C(=O)C=C4[C@@H]5C[C@@](C)(C(=O)O)CC[C@]5(C)CC[C@@]4(C)[C@]3(C)CC[C@@H]12.N.N [Diammonium Glycyrrhizinate] | 0.23 | – | (%) HuNoV GEs (GII.4 HuNoV; [1]): 22.61%
CC1(C)CC[C@]2(C(=O)O)CC[C@]3(C)C(=CC[C@@H]4[C@@]5(C)CCC(=O)C(C)(C)[C@@H]5CC[C@]43C)[C@@H]2C1 [Oleanonic Acid] | -3.05 | 11.9 | –
COC(=O)c1cc(OC)c2c(c1-c1c(CO)cc(OC)c3c1OCO3)OCO2 [Bicyclol] | 0.26 | 162 | –
Cc1nc(N(C)C(=O)Cc2ccc(-c3ccccn3)cc2)sc1S(N)(=O)=O [Pritelivir] | -1.63 | 64.5 | –
Nc1nc2c(ncn2[C@@H]2O[C@H](CO)[C@@H](O)[C@H]2O)c(=O)[nH]1 [Guanosine] | 0.15 | 32.3 | –
C[C@@H]1O[C@@H](O[C@H]2[C@H](Oc3cc(O)c4c(c3)O[C@H](c3ccc(O)cc3)CC4=O)O[C@H](CO)[C@@H](O)[C@@H]2O)[C@H](O)[C@H](O)[C@H]1O [Naringin] | 5.67 | 101 | –
Nc1ncnc2c1ncn2[C@@H]1O[C@H](COP(=O)(O)O)[C@@H](O)[C@H]1O.O [Adenosine 5'-monophosphate monohydrate] | 0.18 | 34.4 | –
COc1ccc([C@H]2OC[C@H]3[C@@H]2CO[C@H]3c2ccc(O[C@@H]3O[C@H](CO)[C@@H](O)[C@H](O)[C@H]3O)c(OC)c2)cc1OC [Forsythin] | 1.24 | – | (%) HuNoV GEs (GII.4 HuNoV; [1]): 52.42%
COc1ccnc(C[S+]([O-])c2nc3ccc(-n4cccc4)cc3[n-]2)c1C.[Na+] (stereo not drawn) [Ilaprazole sodium] | 1.57 | – | (%) HuNoV GEs (GII.4 HuNoV; [1]): 39.34%
